EP0339504A2, “Human immunodeficiency virus (HIV) env-coded peptide capable of eliciting HIV-inhibiting antibodies in mammals” (priority 1988, dated 1989)

Assays:
[1] = system: antibodies from human HIV-1 seropositive serum samples; experiment: ELISA detection of binding of human antibodies to immobilized synthetic peptides; conditions: wells blocked with diluent 1 hour before use
Protocol: Synthetic peptides were immobilized directly on Immulon®-II microtiter plates using glutaraldehyde. The plates were activated with 2% glutaraldehyde for 2 hrs at room temperature or 0.1% glutaraldehyde for 30 min and rinsed with deionized water. Two conditions of glutaraldehyde treatment were used routinely; the 2% glutaraldehyde was used to ensure adequate binding of the peptide to the plate and the 0.1% glutaraldehyde to avoid alteration of the binding sites. Peptide solutions of 100 µl containing 10 µg/ml in 60 mM bicarbonate buffer, pH 9.6, were added per well and incubated overnight at 4°C. The plates were washed and blocked with PBST (phosphate buffered saline + 0.05% Tween® 10) for 1 hr at 37°C and stored dry at 4°C.
This procedure was used to assure immobilization of the peptide to the microtiter plate. The peptide-HSA conjugate was immobilized on the microtiter plate well using the procedure above, except that glutaraldehyde was not included in the reaction.
Immediately before use, where indicated, the plates were blocked again with 100 µl of diluent (PBST + 5% bovine serum albumin + 20% heat inactivated normal goat serum + 0.1% sodium azide + 0.05% thimerosal) for 30 to 60 min at 37°C. […] The optical density or absorbance of the reaction was determined using a microtiter plate reader. […]

guinea pigs = experiment: Immunization of guinea pigs with peptide-carrier protein conjugate; anti-peptide antibodies by ELISA; assay type: in vivo, guinea pig
Protocol: Peptides were conjugated to either ovalbumin or keyhole limpet hemocyanin prior to immunization. For ELISA studies, human serum albumin (HSA) was used as the carrier protein. Carrier protein (2 mg/ml) was activated with 0.5% glutaraldehyde for 30 to 60 min at room temperature, then an equal volume of the peptide solution (2 mg/ml in dimethylsulfoxide) was added. The reaction took place overnight at 4°C, following which the reaction mixture was dialyzed overnight against deionized water or 0.1 M glycine, pH 7.0 in the case of human serum albumin.
Guinea pigs and rabbits were immunized following standard immunization protocols. Guinea pigs and rabbits were immunized initially with 100 to 200 µg of the peptide-carrier protein conjugate in complete Freund's adjuvant, and boosted using half the amount of peptide-carrier protein conjugate in incomplete Freund's adjuvant every two weeks thereafter. Serum samples were obtained at every other boost.
All of the peptides listed in Table 1 were conjugated to a carrier protein (either keyhole limpet hemocyanin or ovalbumin) and each peptide-carrier protein conjugate was used to immunize two guinea pigs. Guinea pigs were selected as a convenient test animal system. The resultant guinea pig antiserum samples were monitored for anti-peptide reactivity using ELISA procedures. […] A time point of six months was selected for testing the antiviral (i.e, HIV neutralizing and cell fusion-blocking) characteristics of the guinea pig antisera.
Although different levels of antibodies were produced, there was no case where only one animal from the pair produced antibodies.

[2] = system: CEM cells chronically infected with HIV-1 IIIB; experiment: Cell fusion assay with anti-peptide sera (giant cell count); assay type: cell-based; conditions: 1:10 serum dilution, control sera 50,65
Protocol: Briefly, 5000 CEM cells chronically infected with HIV-1 IIIB or HIV-1 RF were mixed with 75,000 Molt 4 cells in a volume of 100 µl in a 96 well half-area plate. Final dilution of sera in the assay was 1 to 20. Twenty-four hours later giant cells were visually enumerated at a 40x magnification.

HIV-1 IIIB = experiment: HIV neutralization assay with anti-peptide sera (p24 antigen in Molt 4 culture supernatant); assay type: cell-based; conditions: Molt 4 cells, day six
Protocol: Approximately 500 TCID₅₀ infectious units of HIV-1 IIIB or HIV-1 RF in 25 µl were mixed and incubated with serum dilutions (25 µl) for 30 min at 37°C. Molt 4 cells (4x10⁴) were added in a volume of 100 µl and incubation continued for six days at 37°C. The final dilution of the serum sample was 1 to 20. The total volume of each culture was doubled daily by addition of fresh medium (RPMI + 20% fetal calf serum). On day six, 100 µl samples were taken from the supernatant and tested for the level of viral gag-coded p24 antigen using an antigen capture assay (Du Pont, Wilmington, DE).

“peptide 1-80: aa number 418 to 432 of HIV-1 IIIB env-coded protein (CRIKQIINMWQKVGK; Surface protein gp120; UniProt P04578 418-432, looked up, fragment)” was tested, and the “HIV SEROPOSITIVE SERA Number of Peptide ELISA Positive Sera of 37 Tested” value ([1]; positive = ELISA absorbance greater than 0.2) was 14, the “HIV SEROPOSITIVE SERA Positive Sera Average Absorbance ± SD” value ([1]; positive = absorbance greater than 0.2) was 0.34 ± 0.24 and the “LIMITING DILUTION” value (guinea pigs; anti-peptide ELISA of guinea pig antiserum, 6 month bleed, dilution at which an absorbance of 0.1 would be obtained, one row per animal) was 30. The “level of anti-peptide antibodies elicited (in words)” value (guinea pigs; by 6 months following the first immunization) was “elicited very low levels of anti-peptide antibodies”, the “LIMITING DILUTION” value (guinea pigs; rows marked + : guinea pig antiserum, 2-5 month bleed, dilution giving absorbance 0.1) was under 20 and the “FUSION ASSAY (number of giant cells formed)” value ([2]; guinea pig antiserum, 6 month bleed, two counts per cell separated by a comma (no decimal)) was 63,66. The “FUSION ASSAY (number of giant cells formed)” value ([2]; rows marked + : guinea pig antiserum, 2-5 month bleed, two counts separated by a comma) was 54,53, the “NEUTRALIZATION ACTIVITY (quantity of p24 present in the supernatant)” value (HIV-1 IIIB; guinea pig antiserum, 6 month bleed) was 800 ng/mL and the “NEUTRALIZATION ACTIVITY (quantity of p24 present in the supernatant)” value (HIV-1 IIIB; rows marked + : guinea pig antiserum, 2-5 month bleed) was over 800 ng/mL.
